This test concerns breast cancer cell lines (e.g. MDA-MB-231, SK-BR-3, MDA-MB-468, HCC1954). Put plainly: Cell based assay, cell viability (CellTiter-Glo), breast cancer cell lines. The gist of the method:
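Commercial tumour lines, detached with trypsin-EDTA, were seeded and incubated 24 h. They were then dosed to 0–2 μM final, grown 72 h, and assessed for viability using CellTiter-Glo.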

Where [1] appears, read: Breast cancer cell line MDA-MB-231-L/DOX, 72 hours, CellTiter-Glo, read-out: IC50, MDA-MB-231-L/DOX.
Setting [2] is: Homo sapiens, Breast cancer cell line BT-20, 72 hours, CellTiter-Glo, read-out: IC50, BT-20.
Where [3] appears, read: Homo sapiens, Breast cancer cell line HCC1395, 72 hours, CellTiter-Glo, read-out: IC50, HCC1395.
Setting [4] is: Homo sapiens, Breast cancer cell line HCC1954, 72 hours, CellTiter-Glo, read-out: IC50, HCC1954.
[5] abbreviates: Homo sapiens, Breast cancer cell line JIMT-1, 72 hours, CellTiter-Glo, read-out: IC50, JIMT-1.
The mark [6] stands for this setting: Homo sapiens, Breast cancer cell line MCF7, 72 hours, CellTiter-Glo, read-out: IC50, MCF7.
The mark [7] stands for this setting: Homo sapiens, Breast cancer cell line MDA-MB-231, 72 hours, CellTiter-Glo, read-out: IC50, MDA-MB-231.
Where [8] appears, read: Homo sapiens, Breast cancer cell line MDA-MB-468, 72 hours, CellTiter-Glo, read-out: IC50, MDA-MB-468.
Setting [9] is: Homo sapiens, Breast cancer cell line SK-BR-3, 72 hours, CellTiter-Glo, read-out: IC50, SK-BR-3.
The mark [10] stands for this setting: Homo sapiens, BT-20 cells, 72 hours treatment, CellTiter-Glo cell viability, read-out: IC50, Breast cancer cell line BT-20.
The mark [11] stands for this setting: Homo sapiens, HCC1395 cells, 72 hours treatment, CellTiter-Glo cell viability, read-out: IC50, Breast cancer cell line HCC1395.
[12] abbreviates: Homo sapiens, HCC1954 cells, 72 hours treatment, CellTiter-Glo cell viability, read-out: IC50, Breast cancer cell line HCC1954.
Setting [13] is: Homo sapiens, JIMT-1 cells, 72 hours treatment, CellTiter-Glo cell viability, read-out: IC50, Breast cancer cell line JIMT-1.
Setting [14] is: Homo sapiens, MCF7 cells, 72 hours treatment, CellTiter-Glo cell viability, read-out: IC50, Breast cancer cell line MCF7.
The mark [15] stands for this setting: Homo sapiens, MDA-MB-231 cells, 72 hours treatment, CellTiter-Glo cell viability, read-out: IC50, Breast cancer cell line MDA-MB-231.
The mark [16] stands for this setting: Homo sapiens, MDA-MB-468 cells, 72 hours treatment, CellTiter-Glo cell viability, read-out: IC50, Breast cancer cell line MDA-MB-468.
Setting [17] is: Homo sapiens, SK-BR-3 cells, 72 hours treatment, CellTiter-Glo cell viability, read-out: IC50, Breast cancer cell line SK-BR-3.
Setting [18] is: MDA-MB-231-L/DOX cells, 72 hours treatment, CellTiter-Glo cell viability, read-out: IC50, Breast cancer cell line MDA-MB-231-L/DOX.

In patent US11464770B2, “Anticancer pharmaceutical composition” (NATIONAL CANCER CENTER, priority 2016, dated 2022) one finds IC50 data, which are given here for nine compounds.

Molecules are shown by their SMILES. pIC50: −log10 of the molar value. Like-named read-outs stand apart in the source and are kept apart here. Bounds are passed on as bounds.

Take `CC(=O)c1c([S+]([O-])Cc2c(F)cccc2Cl)[nH]c2c(Br)ccc(Cl)c2c1=O` (stereo not drawn) [Compound 74, 3-acetyl-8-bromo-5-chloro-2-((2-chloro-6-fluorobenzyl)sulfinyl)quinolin-4(1H)-one]: the pIC50 is less than 5.70 under setting [1]; less than 5.70 under setting [2]; less than 5.00 under setting [3]; less than 5.70 under setting [4]; less than 5.00 under setting [5]; less than 5.70 under setting [6]. Moreover, the pIC50 under setting [7] was less than 5.70, the pIC50 under setting [8] was less than 5.70 and the pIC50 under setting [9] is 5.97.
Consider `COc1cc(S(F)(F)(F)(F)F)ccc1C[S+]([O-])c1[nH]c2c(Br)ccc(Cl)c2c(=O)c1C(C)=O` (stereo not drawn) [Compound 75, 3-acetyl-8-bromo-5-chloro-2-((2-methoxy-4-(pentafluoro--sulfanyl)benzyl)sulfinyl)quinolin-4(1H)-one], for which the pIC50 is less than 5.70 under setting [1]; less than 5.70 under setting [2]; less than 5.70 under setting [3]; less than 5.70 under setting [4]; less than 5.70 under setting [5]; less than 5.70 under setting [6]. Further, the pIC50 under setting [7] is 5.94, the pIC50 under setting [8] is less than 5.70 and the pIC50 under setting [9] is 5.77.
`CC(=O)c1c([S+]([O-])Cc2cc(F)cc(S(F)(F)(F)(F)F)c2)[nH]c2c(Br)ccc(Cl)c2c1=O` (stereo not drawn) [Compound 76, 3-acetyl-8-bromo-5-chloro-2-((3-fluoro-5-(pentafluoro--sulfanyl)benzyl)sulfinyl)quinolin-4(1H)-one]: the pIC50 reads like this: under setting [1], less than 5.70; under setting [2], less than 5.70; under setting [3], less than 5.00; under setting [4], less than 5.70; under setting [5], less than 5.00; under setting [6], less than 5.70. In addition, the pIC50 runs as follows: under setting [7], less than 5.70; under setting [8], less than 5.70; under setting [9], 5.76.
For the compound `CC(=O)c1c([S+]([O-])Cc2c(F)c(F)c(F)c(F)c2F)[nH]c2c(Br)ccc(Cl)c2c1=O` (stereo not drawn) [Compound 78, 3-acetyl-8-bromo-5-chloro-2-(((perfluorophenyl)methyl)sulfinyl)quinolin-4(1H)-one], the pIC50 is, setting by setting: under setting [1], less than 5.70; under setting [2], less than 5.70; under setting [3], less than 5.00; under setting [4], less than 5.70; under setting [5], less than 5.00; under setting [6], less than 5.70. Also, the pIC50 under setting [7] is less than 5.70, the pIC50 under setting [8] is less than 5.70 and the pIC50 under setting [9] is 5.92.
Consider `CC(=O)c1c([S+]([O-])Cc2ccc(I)cc2)[nH]c2c(Cl)ccc(Cl)c2c1=O` (stereo not drawn) [Compound 83, 3-acetyl-5,8-dichloro-2-((4-iodobenzyl)sulfinyl)quinolin-4(1H)-one], for which the pIC50 runs as follows: under setting [10], less than 5.70; under setting [11], less than 5.00; under setting [12], 5.84; under setting [13], less than 5.00; under setting [14], less than 5.70; under setting [15], 5.71. Also, the pIC50 under setting [16] was 5.75, the pIC50 under setting [17] is 5.92 and the pIC50 under setting [18] is less than 5.70.
For `CC(=O)c1c([S+]([O-])Cc2cccnc2)[nH]c2c(Br)ccc(Cl)c2c1=O` (stereo not drawn) [Compound 84, 3-acetyl-8-bromo-5-chloro-2-((pyridin-3-ylmethyl)sulfinyl)quinolin-4(1H)-one], the pIC50 was less than 5.70 under setting [10]; less than 5.00 under setting [11]; 5.95 under setting [12]; less than 5.00 under setting [13]; less than 5.70 under setting [14]; 5.80 under setting [15]. In addition, the pIC50 was 5.98 under setting [16], 6.12 under setting [17] and less than 5.70 under setting [18].
Take `Cc1cc(C[S+]([O-])c2[nH]c3c(Cl)ccc(Cl)c3c(=O)c2C(=O)C(C)C)no1` (stereo not drawn) [Compound 86, 5,8-dichloro-3-isobutyryl-2-(((5-methylisoxazol-3-yl)methyl)sulfinyl)quinolin-4(1H)-one]: the pIC50 under setting [10] was less than 5.70; the pIC50 under setting [11] is less than 5.00; the pIC50 under setting [12] is 6.30; the pIC50 under setting [13] was less than 5.00; the pIC50 under setting [14] is 5.83; the pIC50 under setting [15] was 5.80. Also, the pIC50 is 6.24 under setting [16], 6.24 under setting [17] and 5.95 under setting [18].
Take `COC(=O)c1ccc(C[S+]([O-])c2[nH]c3c(Cl)ccc(Cl)c3c(=O)c2C(C)=O)o1` (stereo not drawn) [Compound 89, methyl 5-(((3-acetyl-5,8-dichloro-4-oxo-1,4-dihydroquinolin-2-yl)sulfinyl)methyl)furan-2-carboxylate]: the pIC50 was less than 5.70 under setting [10]; less than 5.00 under setting [11]; 5.87 under setting [12]; less than 5.00 under setting [13]; less than 5.70 under setting [14]; less than 5.70 under setting [15]. The pIC50 reads like this: under setting [16], 5.87; under setting [17], 5.87; under setting [18], less than 5.70.
For `Cc1cc(C[S+]([O-])c2[nH]c3c(Br)ccc(Cl)c3c(=O)c2C(=O)C(C)C)no1` (stereo not drawn) [Compound 95, 8-bromo-5-chloro-3-isobutyryl-2-(((5-methylisoxazol-3-yl)methyl)sulfinyl)quinolin-4(1H)-one], the pIC50 by setting is: under setting [10], 5.73; under setting [11], less than 5.00; under setting [12], 6.32; under setting [13], less than 5.70; under setting [14], 5.89; under setting [15], 5.85. Moreover, the pIC50 by setting is: under setting [16], 6.33; under setting [17], 6.33; under setting [18], 5.99.
